Test system: 885724-159-R-J1-PDC complex spheroid viability
Experiment: Anticancer human tumor 885724-159-R-J1-PDC patient-derived pancreatic adenocarcinoma cell line growth inhibition [POLQ]
Settings: for IC50: curve of first compound; for viability, T/C: stronger effect = lower value
In short: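 Complex spheroid viability model combining PDC tumour cells with endothelial (HUVEC) and MSC stromal cells. Novobiocin, ART-558 or RP6685 were tested singly and in combination with standard and investigational anticancer drugs. Each was titrated in half-log steps from near clinical Cmax, or from 10 microM where Cmax was unknown.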

[1] = second compound 0.0316 µM, first compound 0.00316 µM
[2] = second compound 0.0316 µM, first compound 0.01 µM
[3] = second compound 0.0316 µM, first compound 0.0316 µM
[4] = second compound 0.0316 µM, first compound 0.1 µM
[5] = second compound 0.0316 µM, first compound 0.316 µM
[6] = second compound 0.0316 µM, first compound 1 µM
[7] = second compound 0.1 µM, first compound 0.00316 µM
[8] = second compound 0.1 µM, first compound 0.01 µM
[9] = second compound 0.1 µM, first compound 0.0316 µM
[10] = second compound 0.1 µM, first compound 0.1 µM
[11] = second compound 0.1 µM, first compound 0.316 µM
[12] = second compound 0.1 µM, first compound 1 µM
[13] = second compound 0.316 µM, first compound 0.00316 µM
[14] = second compound 0.316 µM, first compound 0.01 µM
[15] = second compound 0.316 µM, first compound 0.0316 µM
[16] = second compound 0.316 µM, first compound 0.1 µM
[17] = second compound 0.316 µM, first compound 0.316 µM
[18] = second compound 0.316 µM, first compound 1 µM
[19] = second compound 1 µM, first compound 0.00316 µM
[20] = second compound 1 µM, first compound 0.01 µM
[21] = second compound 1 µM, first compound 0.0316 µM
[22] = second compound 1 µM, first compound 0.1 µM
[23] = second compound 1 µM, first compound 0.316 µM
[24] = second compound 1 µM, first compound 1 µM
[25] = second compound 3.16 µM, first compound 0.00316 µM
[26] = second compound 3.16 µM, first compound 0.01 µM
[27] = second compound 3.16 µM, first compound 0.0316 µM
[28] = second compound 3.16 µM, first compound 0.1 µM
[29] = second compound 3.16 µM, first compound 0.316 µM
[30] = second compound 3.16 µM, first compound 1 µM
[31] = second compound 10 µM, first compound 0.00316 µM
[32] = second compound 10 µM, first compound 0.01 µM
[33] = second compound 10 µM, first compound 0.0316 µM
[34] = second compound 10 µM, first compound 0.1 µM
[35] = second compound 10 µM, first compound 0.316 µM
[36] = second compound 10 µM, first compound 1 µM
[37] = second compound 0.0316 µM, first compound 3.16 µM
[38] = second compound 0.0316 µM, first compound 10 µM
[39] = second compound 0.1 µM, first compound 3.16 µM
[40] = second compound 0.1 µM, first compound 10 µM
[41] = second compound 0.316 µM, first compound 3.16 µM
[42] = second compound 0.316 µM, first compound 10 µM
[43] = second compound 1 µM, first compound 3.16 µM
[44] = second compound 1 µM, first compound 10 µM
[45] = second compound 3.16 µM, first compound 3.16 µM
[46] = second compound 3.16 µM, first compound 10 µM
[47] = second compound 10 µM, first compound 3.16 µM
[48] = second compound 10 µM, first compound 10 µM
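Also: spheroids exposed to compounds for 7 days.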

C=CCn1c(=O)c2cnc(Nc3ccc(N4CCN(C)CC4)cc3)nc2n1-c1cccc(C(C)(C)O)n1 + COC1C(OC(N)=O)C(O)C(Oc2ccc3c(O)c(NC(=O)c4ccc(O)c(CC=C(C)C)c4)c(=O)oc3c2C)OC1(C)C
IC50 (second compound 0.0316 µM): 296 nM
IC50 (second compound 0.1 µM): 532 nM
IC50 (second compound 0.316 µM): 689 nM
IC50 (second compound 1 µM): 713 nM
IC50 (second compound 3.16 µM): 697 nM
IC50 (second compound 10 µM): 631 nM
viability, T/C [1]: 87.8%
viability, T/C [2]: 109%
viability, T/C [3]: 90.9%
viability, T/C [4]: 85.4%
viability, T/C [5]: 47.5%
viability, T/C [6]: 42.2%
viability, T/C [7]: 100%
viability, T/C [8]: 99.7%
viability, T/C [9]: 96.5%
viability, T/C [10]: 86.4%
viability, T/C [11]: 54.4%
viability, T/C [12]: 44.5%
viability, T/C [13]: 103%
viability, T/C [14]: 100%
viability, T/C [15]: 93.2%
viability, T/C [16]: 82.7%
viability, T/C [17]: 52.7%
viability, T/C [18]: 49%
viability, T/C [19]: 110%
viability, T/C [20]: 93.8%
viability, T/C [21]: 89.7%
viability, T/C [22]: 82.6%
viability, T/C [23]: 55.1%
viability, T/C [24]: 46.9%
viability, T/C [25]: 100%
viability, T/C [26]: 88.3%
viability, T/C [27]: 90.1%
viability, T/C [28]: 77.3%
viability, T/C [29]: 57.4%
viability, T/C [30]: 46.5%
viability, T/C [31]: 101%
viability, T/C [32]: 90.2%
viability, T/C [33]: 97.2%
viability, T/C [34]: 74.3%
viability, T/C [35]: 58.6%
viability, T/C [36]: 44.8%

CCCS(=O)(=O)Nc1ccc(F)c(C(=O)c2c[nH]c3ncc(-c4ccc(Cl)cc4)cc23)c1F + COC1C(OC(N)=O)C(O)C(Oc2ccc3c(O)c(NC(=O)c4ccc(O)c(CC=C(C)C)c4)c(=O)oc3c2C)OC1(C)C
IC50 (second compound 0.0316 µM): > 10000 nM
IC50 (second compound 0.1 µM): > 10000 nM
IC50 (second compound 0.316 µM): > 10000 nM
IC50 (second compound 1 µM): > 10000 nM
IC50 (second compound 3.16 µM): > 10000 nM
IC50 (second compound 10 µM): > 10000 nM
viability, T/C [3]: 106%
viability, T/C [4]: 114%
viability, T/C [5]: 140%
viability, T/C [6]: 148%
viability, T/C [37]: 137%
viability, T/C [38]: 65.9%
viability, T/C [9]: 109%
viability, T/C [10]: 114%
viability, T/C [11]: 130%
viability, T/C [12]: 157%
viability, T/C [39]: 143%
viability, T/C [40]: 67.8%
viability, T/C [15]: 104%
viability, T/C [16]: 121%
viability, T/C [17]: 131%
viability, T/C [18]: 163%
viability, T/C [41]: 137%
viability, T/C [42]: 76.6%
viability, T/C [21]: 108%
viability, T/C [22]: 107%
viability, T/C [23]: 123%
viability, T/C [24]: 145%
viability, T/C [43]: 139%
viability, T/C [44]: 68.1%
viability, T/C [27]: 110%
viability, T/C [28]: 103%
viability, T/C [29]: 122%
viability, T/C [30]: 154%
viability, T/C [45]: 151%
viability, T/C [46]: 82.4%
viability, T/C [33]: 111%
viability, T/C [34]: 114%
viability, T/C [35]: 128%
viability, T/C [36]: 139%
viability, T/C [47]: 152%
viability, T/C [48]: 76.3%

CNCc1ccc(-c2[nH]c3cc(F)cc4c3c2CCNC4=O)cc1 + COC1C(OC(N)=O)C(O)C(Oc2ccc3c(O)c(NC(=O)c4ccc(O)c(CC=C(C)C)c4)c(=O)oc3c2C)OC1(C)C
IC50 (second compound 0.0316 µM): > 10000 nM
IC50 (second compound 0.1 µM): > 10000 nM
IC50 (second compound 0.316 µM): > 10000 nM
IC50 (second compound 1 µM): > 10000 nM
IC50 (second compound 3.16 µM): > 10000 nM
IC50 (second compound 10 µM): > 10000 nM
viability, T/C [3]: 95.9%
viability, T/C [4]: 96.7%
viability, T/C [5]: 95.4%
viability, T/C [6]: 94.7%
viability, T/C [37]: 93.2%
viability, T/C [38]: 75.9%
viability, T/C [9]: 96.4%
viability, T/C [10]: 96.5%
viability, T/C [11]: 93.5%
viability, T/C [12]: 108%
viability, T/C [39]: 92.7%
viability, T/C [40]: 84%
viability, T/C [15]: 101%
viability, T/C [16]: 96.4%
viability, T/C [17]: 93.5%
viability, T/C [18]: 95.5%
viability, T/C [41]: 91%
viability, T/C [42]: 81.2%
viability, T/C [21]: 102%
viability, T/C [22]: 91.5%
viability, T/C [23]: 87.2%
viability, T/C [24]: 85.4%
viability, T/C [43]: 92.4%
viability, T/C [44]: 78.3%
viability, T/C [27]: 93.3%
viability, T/C [28]: 88.2%
viability, T/C [29]: 90.3%
viability, T/C [30]: 84.2%
viability, T/C [45]: 89%
viability, T/C [46]: 82.5%
viability, T/C [33]: 102%
viability, T/C [34]: 94.8%
viability, T/C [35]: 84%
viability, T/C [36]: 87.7%
viability, T/C [47]: 88.2%
viability, T/C [48]: 88.9%

Cn1ncnc1[C@H]1c2n[nH]c(=O)c3cc(F)cc(c23)N[C@@H]1c1ccc(F)cc1 + COC1C(OC(N)=O)C(O)C(Oc2ccc3c(O)c(NC(=O)c4ccc(O)c(CC=C(C)C)c4)c(=O)oc3c2C)OC1(C)C
IC50 (second compound 0.0316 µM): > 100 nM
IC50 (second compound 0.1 µM): > 100 nM
IC50 (second compound 0.316 µM): > 100 nM
IC50 (second compound 1 µM): > 100 nM
IC50 (second compound 3.16 µM): > 100 nM
IC50 (second compound 10 µM): > 100 nM
viability, T/C (second compound 0.0316 µM, first compound 0.000316 µM): 91.2%
viability, T/C (second compound 0.0316 µM, first compound 0.001 µM): 103%
viability, T/C [1]: 92.2%
viability, T/C [2]: 94.9%
viability, T/C [3]: 87%
viability, T/C [4]: 72.1%
viability, T/C (second compound 0.1 µM, first compound 0.000316 µM): 101%
viability, T/C (second compound 0.1 µM, first compound 0.001 µM): 95.3%
viability, T/C [7]: 94.5%
viability, T/C [8]: 93.6%
viability, T/C [9]: 89.8%
viability, T/C [10]: 82.8%
viability, T/C (second compound 0.316 µM, first compound 0.000316 µM): 113%
viability, T/C (second compound 0.316 µM, first compound 0.001 µM): 92%
viability, T/C [13]: 95.6%
viability, T/C [14]: 95.4%
viability, T/C [15]: 89.4%
viability, T/C [16]: 78.7%
viability, T/C (second compound 1 µM, first compound 0.000316 µM): 105%
viability, T/C (second compound 1 µM, first compound 0.001 µM): 86.6%
viability, T/C [19]: 95.7%
viability, T/C [20]: 85%
viability, T/C [21]: 83.6%
viability, T/C [22]: 77%
viability, T/C (second compound 3.16 µM, first compound 0.000316 µM): 105%
viability, T/C (second compound 3.16 µM, first compound 0.001 µM): 87.5%
viability, T/C [25]: 90.2%
viability, T/C [26]: 98.5%
viability, T/C [27]: 93.7%
viability, T/C [28]: 75.7%
viability, T/C (second compound 10 µM, first compound 0.000316 µM): 95.1%
viability, T/C (second compound 10 µM, first compound 0.001 µM): 97.4%
viability, T/C [31]: 85%
viability, T/C [32]: 90.5%
viability, T/C [33]: 88.4%
viability, T/C [34]: 75.3%
